Patent US5620960A, “Use of D-allose as an immunosuppressive agent” (UOP, priority 1994, dated 1997)
Entries after “also recorded” stand apart in the source; their conditions may differ.

Tests used:
bone marrow = test: 28-day rat gavage study: Bone Marrow smears; type: in vivo, rat (Crl:CD®BR)
Method: (§1) D-allose or deionized water was administered to 15 male and 15 female rats (Crl:CD®BR rats approximately 4 weeks of age from Charles River Laboratories) by gavage once daily for 28 days at dosage levels of D-allose of 3.1 and 5.1 g/Kg/day.
(§2) Each rat was observed twice daily for mortality, morbidity and overt signs of toxicity. Detailed observations were performed once during each study week. Individual body weights, food consumption, food efficiency and water consumption were recorded daily. Hematology, biochemistry and urinalysis evaluations were conducted on all male and female animals during the last week of study. At study termination, all animals were euthanized. […] A complete set of major tissues and organs was harvested and selected organ weights were determined. Protocol-specified tissues were processed histologically and microscopic examination was conducted.
(§3) As a result, bone marrow smears were examined for all animals.

mouse lymphoma = type: cell-based
Description: 2) mouse lymphoma forward mutation assay;

Crl:CD®BR rats = system: Crl:CD®BR rats; design: species or system rat (Crl:CD®BR); conditions: rat, in vivo
Method: as §1, §2
The rats were observed twice daily for signs of overt toxicity at the times of the morbidity/mortality checks. Detailed observations were conducted once each study week during the 28 days of the study.
Individual body weights were recorded daily for the 28 days of the study.
For the first 28 days of the study, individual food consumption was recorded daily and food efficiency was calculated. […] Increases and decreases occurred in food efficiency values for males and females at all treatment levels, with no obvious trend.
Individual water consumption was recorded daily for the 28 days of the study.

[1] = system: segmented neutrophils, leukocytes, erythrocytes, platelets; test: 28-day rat gavage study: Hematology (blood cell counts); type: in vivo, rat (Crl:CD®BR); conditions: for Segmented Neutrophils (mean): terminal (28 days); for Segmented Neutrophils (mean) / Band Neutrophils (mean) / Basophils (mean) / Other Cells (mean) / Eosinophils (mean) / Monocytes (mean) / Erythrocytes (mean) / Leukocytes (mean) / Platelets (mean) / Lymphocytes (mean): N 5; for Band Neutrophils (mean) / Basophils (mean) / Other Cells (mean) / Eosinophils (mean) / Monocytes (mean) / Erythrocytes (mean) / Leukocytes (mean) / Platelets (mean) / Lymphocytes (mean): terminal; for Band Neutrophils (mean) / Basophils (mean) / Other Cells (mean): control 0.0; for Leukocytes (mean): control 9.6; for Platelets (mean): p ≤ 0.01; for Lymphocytes (mean): control 7.4
Method: as §1, §2
(§4) Clinical laboratory studies were conducted on all main animals at termination of study. Blood samples were obtained from the orbital sinus following an overnight fasting period in which water was available. Urine was collected during the fasting period.
as §3

[2] = rat, in vivo
Description: (§5) This study was patterned after that Example 1 where a satellite group of animals received radiolabeled D-allose to establish excretion routes. On day 28, the animals in the satellite groups (5 controls, 5 males and 5 females) received a single dose of [^14 C]D-allose for-study days 1-28 at the same dose concentration as the non-radiolabeled material except for the "Control Satellite Group" which received a single high dose containing radiolabeled D-allose.
(§6) On days 1-27, all control group animals (main and satellite) received deionized water at the same dosage volume as the test animals. However, on day 28 the satellite control animals became "Unadapted High Dose Test Animals" in that they received a high dose (5.1 g/kg) of radiolabeled D-allose. In this manner the "Unadapted High Dose Test Animals" could be directly compared to the multiple high dose animals which were adapted by administration of the high dose for 28 days.
HPLC (High Pressure Liquid Chromatography) of urine from treated animals was compared with C^14 radiolabeled D-allose spiked urine from control animals.

[3] = system: chinese hamster ovary cells; type: cell-based
Description: 3) chromosomal aberrations in chinese hamster ovary cells;

Male Rats = test: Acute Oral Toxicity Study in Male Rats; type: in vivo, rat
Description: Acute Oral Toxicity Study in Male Rats

[4] = D-allose Excretion Routes ([^14 C]D-allose, liquid scintillation counting); type: in vivo, rat
Description: as §5, §6
Each rat was observed twice daily for mortality, morbidity and overt signs of toxicity. Detailed observations were performed once during each study week. Individual body weights, food consumption, food efficiency and water consumption were recorded daily. […] Feces samples were collected at 24, 48, 72 and 96 hours after radiolabeled dosing from the satellite group animals. Duplicate aliquots of expired air solution, urine, feces and cage wash were analyzed by liquid scintillation counting (LSC). At study termination, all animals were euthanized. The carcasses from the satellite groups were analyzed for radioactive content only.

[5] = 28-day rat gavage study: Biochemistry and urinalysis; type: in vivo, rat (Crl:CD®BR); conditions: 28 days
Method: as §1, §2, §4

human lymphocytes = type: cell-based
Description: 5) sister chromatid exchange in human lymphocytes with and without activation.

Balb cells = type: cell-based
Description: 4) in vitro transformation of Balb cells;

water solubility = type: physicochemical
major tissues and organs = test: 28-day rat gavage study: Anatomic Pathology (necropsy and histopathology); type: in vivo, rat (Crl:CD®BR); conditions: 28 days gavage, listed organs
Method: as §1, §2

salmonella = test: salmonella/mammalian--microsome reverse mutation assay; type: cell-based
Description: 1) salmonella/mammalian--microsome reverse mutation assay;

[6] = females, D-allose 3.1 g/kg/day, control 0.1
[7] = males, D-allose 3.1 g/kg/day, control 0.2
[8] = males, D-allose 5.1 g/kg/day, control 0.2
[9] = acute oral, 5 grams/Kg, male rats

Compound: O=C[C@H](O)[C@H](O)[C@H](O)[C@H](O)CO [D-allose]
- numbers of late stage neutrophils in bone marrow (bone marrow; 3.1 and 5.1 g/kg/day, most striking in the high dose groups): decreased numbers of late stage neutrophils
- mature myeloid cells in the bone marrow smears (bone marrow; 28 days gavage, rats): marked reduction in mature myeloid cells
- bone marrow erythroid series (bone marrow; all groups): well represented with a normal maturation sequence
- cytological integrity of the cells in the neutrophil series (bone marrow; both dosage groups (3.1 and 5.1 g/kg/day)): overall decrease in cytological integrity
- Myeloid to erythroid ratios in bone marrows (bone marrow; both treatment groups, usually, control approximately 1.6 to 3.0): less than 1.0
- bone marrow cellularity and megakaryocytes (bone marrow; control and both treatment groups): very cellular with adequate numbers of active megakaryocytes in varying stages of maturity
- mutagenic properties (mouse lymphoma): no mutagenic properties
- effect on appearance or behavior (clinical signs) (Crl:CD®BR rats): no definitive D-allose-related effect
- mean food consumption values or mean food efficiency values (Crl:CD®BR rats): no D-allose-related effect
- mean water consumption values (Crl:CD®BR rats): no D-allose-related effect
- segmented neutrophils in some high dose group animals ([1]; 5.1 g/Kg/day, 28 days): very low or not countable
- platelets (result in words) ([1]; 28 days gavage, 3.1 and 5.1 g/Kg/day, both sexes): significant reduction in platelet formation; also recorded: dose-related reduction in numbers in both sexes; also recorded: dose-related reduction in platelet counts in both sexes
- segmented neutrophils (result in words) ([1]; 28 days gavage, 3.1 and 5.1 g/Kg/day, rats): dose-related reduction in segmented neutrophil production; also recorded: marked decrease in segmented neutrophils which was dose-related; also recorded: reduction in segmented neutrophils
- effect on the erythroid series ([1]; 28 days gavage, rats): no apparent effect on the erythroid series
- total leukocyte counts (result in words) ([1]; 28 days gavage, rats): reductions in total leukocyte counts
- Segmented Neutrophils (mean) ([1]; females, D-allose 3.1 g/kg/day, control 1.8): 0.5 × 10^3 /cmm
- Band Neutrophils (mean) ([1]; females, D-allose 3.1 g/kg/day): 0.0 × 10^3 /cmm
- Basophils (mean) ([1]; females, D-allose 3.1 g/kg/day): 0.0 × 10^3 /cmm
- Other Cells (mean) ([1]; females, D-allose 3.1 g/kg/day): 0.0 × 10^3 /cmm
- Eosinophils (mean) [1, 6]: 0.1 × 10^3 /cmm
- Monocytes (mean) [1, 6]: 0.1 × 10^3 /cmm
- Erythrocytes (mean) ([1]; females, D-allose 3.1 g/kg/day, control 6.17): 6.24 × 10^6 /cumm
- Leukocytes (mean) ([1]; females, D-allose 3.1 g/kg/day): 6.5 × 10^3 /cumm
- Platelets (mean) ([1]; females, D-allose 3.1 g/kg/day, control 992): 567 × 10^3 /cmm
- Segmented Neutrophils (mean) ([1]; females, D-allose 5.1 g/kg/day, control 1.8): 0.1 × 10^3 /cmm
- Band Neutrophils (mean) ([1]; females, D-allose 5.1 g/kg/day): 0.0 × 10^3 /cmm
- Basophils (mean) ([1]; females, D-allose 5.1 g/kg/day): 0.0 × 10^3 /cmm
- Other Cells (mean) ([1]; females, D-allose 5.1 g/kg/day): 0.0 × 10^3 /cmm
- Eosinophils (mean) ([1]; females, D-allose 5.1 g/kg/day, control 0.1): 0.1 × 10^3 /cmm
- Erythrocytes (mean) ([1]; females, D-allose 5.1 g/kg/day, control 6.17): 6.42 × 10^6 /cumm
- Leukocytes (mean) ([1]; females, D-allose 5.1 g/kg/day): 5.4 × 10^3 /cumm
- Platelets (mean) ([1]; females, D-allose 5.1 g/kg/day, control 992): 414 × 10^3 /cmm
- Segmented Neutrophils (mean) ([1]; males, D-allose 3.1 g/kg/day, control 1.9): 0.9 × 10^3 /cmm
- Band Neutrophils (mean) ([1]; males, D-allose 3.1 g/kg/day): 0.0 × 10^3 /cmm
- Basophils (mean) ([1]; males, D-allose 3.1 g/kg/day): 0.0 × 10^3 /cmm
- Other Cells (mean) ([1]; males, D-allose 3.1 g/kg/day): 0.0 × 10^3 /cmm
- Eosinophils (mean) [1, 7]: 0.1 × 10^3 /cmm
- Monocytes (mean) [1, 7]: 0.1 × 10^3 /cmm
- Erythrocytes (mean) ([1]; males, D-allose 3.1 g/kg/day, control 6.85): 7.10 × 10^6 /cumm
- Lymphocytes (mean) ([1]; males, D-allose 3.1 g/kg/day): 9.1 × 10^3 /cmm
- Leukocytes (mean) ([1]; males, D-allose 3.1 g/kg/day): 10.3 × 10^3 /cumm
- Platelets (mean) ([1]; males, D-allose 3.1 g/kg/day, control 1072): 546 × 10^3 /cmm
- Segmented Neutrophils (mean) ([1]; males, D-allose 5.1 g/kg/day, control 1.9): 0.2 × 10^3 /cmm
- Band Neutrophils (mean) ([1]; males, D-allose 5.1 g/kg/day): 0.0 × 10^3 /cmm
- Basophils (mean) ([1]; males, D-allose 5.1 g/kg/day): 0.0 × 10^3 /cmm
- Other Cells (mean) ([1]; males, D-allose 5.1 g/kg/day): 0.0 × 10^3 /cmm
- Eosinophils (mean) [1, 8]: 0.1 × 10^3 /cmm
- Monocytes (mean) [1, 8]: 0.1 × 10^3 /cmm
- Erythrocytes (mean) ([1]; males, D-allose 5.1 g/kg/day, control 6.85): 7.03 × 10^6 /cumm
- Lymphocytes (mean) ([1]; males, D-allose 5.1 g/kg/day): 5.6 × 10^3 /cmm
- Leukocytes (mean) ([1]; males, D-allose 5.1 g/kg/day, significantly different from control): 5.9 × 10^3 /cumm
- Platelets (mean) ([1]; males, D-allose 5.1 g/kg/day, control 1072): 320 × 10^3 /cmm
- duration of suppressive effect ([1]; rats, suppression of segmented neutrophil and platelet production): remains only so long as D-allose administration is continued
- HPLC of urine from treated animals [2]: major peak corresponding to the spiked D-allose peak
- undigested D-allose in the urine [2]: confirmed the presence of undigested D-allose in the urine
- mutagenic properties [3]: no mutagenic properties
- body weight changes (Male Rats; [9]): no remarkable body weight changes
- mortalities (Male Rats; [9]): no mortalities
- pharmacotoxic signs (Male Rats; [9]): no pharmacotoxic signs
- visible post-mortem abnormalities (Male Rats; rat, in vivo, po): no visible post-mortem abnormalities
- radioactivity retained in carcass ([4]; all groups): less than 1%
- excretion of radiolabel in the feces, of the recovered dose ([4]; corrected for recovery): 6 to 9%
- urinary excretion, of the recovered dose ([4]; corrected for recovery, average, all three test groups): approximately 90%
- differences in the rates or routes of excretion between treatment groups ([4]; radiolabeled D-allose): no substantial differences
- radioactivity excretion routes ([4]; radiolabeled D-allose, rats): most of the radioactivity was excreted in the urine with a small amount in the feces and lesser amounts in exhaled air and retained in the carcass
- Radiation in exhaled air ([4]; rat, in vivo): less than 0.5%
- effects on survival, appearance, behavior, body weights, food consumption or water consumption ([4]; rat, in vivo): no D-allose-related effects
- Cholesterol ([5]; males, high dose (5.1 g/kg/day), vs. 51 mg/dl, significantly increased): 72 mg/dL
- pH ([5]; treated animals): decreased
- Urine volumes ([5]; treated groups): decreased
- urine specific gravity ([5]; treated groups): increased
- mutagenic properties (human lymphocytes): no mutagenic properties
- mutagenic properties (Balb cells): no mutagenic properties
- water solubility (water solubility): high water solubility
- findings at necropsy or on histopathological examination (major tissues and organs): no treatment related findings
- mutagenic properties (salmonella): no mutagenic properties
